The numbers were not newly measured in patent US8883207B2, “Controlled release carvedilol formulation” (TSH Biopharm Corporation Ltd., priority 2009, dated 2014), which cites them from elsewhere.

The structures appear in SMILES notation. Read-outs that look alike come from different tables or passages of the source.

Assay in data set [1]: not given
The source holds these as a separate data set.

Take `COc1ccccc1OCCNCC(O)COc1cccc2[nH]c3ccccc3c12` (racemic) [carvedilol, ((±)1-(carbazol-4-yloxy-3-[[2-(o-methoxyphenoxy)ethyl]-amino]-2-propanol)]: for the setting “gastric fluid (simulated, TS, pH 1.1)”, the “solubility in gastric fluid” value is on record as “low solubility”. The “solubility in intestinal fluid” value (intestinal fluid (simulated, TS without pancreatin, pH 7.5)) was “low solubility”. The solubility in water result (water) was “low solubility”. Further, the values for the relative absorption in data set [1] (colon), in data set [1] (ileum) and in data set [1] (jejunum) were 7%, 28% and 56%, respectively.
